Laboratory results as given in patent publication US11547681B2, “N-acylethanolamide derivatives and uses thereof” (ELIEM THERAPEUTICS, INC., priority 2016, dated 2023).
Each block holds one compound with its values, some of them ahead of it.

Assay: in vitro
Settings: for Measured concentration of PEA (analyte) / % Remaining of Initial / Concentration of analyte I-9 / Concentration of analyte PEA / Measured concentration of analyte PEA, 0 min / Measured concentration of analyte PEA, 10 min / Measured concentration of analyte PEA, 20 min / Measured concentration of analyte PEA, 30 min / Measured concentration of analyte PEA, 60 min / % Remaining of Initial (n = 1) / % Remaining of Initial, 0 min / % Remaining of Initial, 10 min / % Remaining of Initial, 20 min / % Remaining of Initial, 30 min / % Remaining of Initial, 60 min: 1 μM; for % Remaining of Initial / microsomal CLint at 1 μM / half-life at 1 μM / % Remaining of Initial (n = 1) / % Remaining of Initial, 0 min / % Remaining of Initial, 10 min / % Remaining of Initial, 20 min / % Remaining of Initial, 30 min / % Remaining of Initial, 60 min: microsomes
Protocol: The reaction mixture, minus cofactors, was prepared as described below. The test article was added into the reaction mixture at a final concentration of 1 μM. […] An aliquot of the reaction mixture (without cofactor) was equilibrated in a shaking water bath at 37° C. for 3 minutes. The reaction was initiated by the addition of cofactor, and the mixture was incubated in a shaking water bath at 37° C. Aliquots (100 μL) were withdrawn at 0, 10, 20, 30, and 60 minutes. All samples were immediately combined with 400 μL of ice-cold 50/50 acetonitrile/H2O containing 0.1% formic acid and internal standard to terminate the reaction. The samples were then mixed and centrifuged to precipitate proteins. Calibration standards were prepared in matched matrix. All samples and standards were assayed by LC-MS/MS using electrospray ionization for both the dosed prodrug I-9 and the expected drug (PEA). Analytical conditions are outlined in Appendix 4-1. The test article concentration at each time point was compared to the test article concentration at time 0 to determine the percent remaining at each time point. Half-lives were calculated using GraphPad software, fitting to a single-phase exponential decay equation.
Reaction mixture, minus cofactors, was prepared as described below. Test article was added into the reaction mixture at a final concentration of 1 μM. […] An aliquot of the reaction mixture (without cofactor) was equilibrated in a shaking water bath at 37° C. for 3 minutes. The reaction was initiated by the addition of cofactor, and the mixture was incubated in a shaking water bath at 37° C. Aliquots (100 μL) were withdrawn at 0, 10, 20, 30, and 60 minutes. Test article samples were immediately combined with 300 μL of ice-cold acetonitrile containing 1% formic acid. Control samples were immediately combined with 400 μL of ice-cold 50/50 acetonitrile (ACN)/dH2O containing 0.1% formic acid and internal standard to terminate the reaction. Samples were then mixed and centrifuged to precipitate proteins. Calibration standards were prepared in matched matrix. Samples and standards were assayed by LC-MS/MS using electrospray ionization for both dosed prodrug and expected drug (PEA). Analytical conditions are outlined in Appendix 8-1. Test article concentration at each time point was compared to test article concentration at time 0 to determine the percent remaining at each time point. Half-lives were calculated using GraphPad software, fitting to a single-phase exponential decay equation.
Reaction mixture, minus cofactors, was prepared as described below. Test article was added into the reaction mixture at a final concentration of 1 μM. […] An aliquot of the reaction mixture (without cofactor) was equilibrated in a shaking water bath at 37° C. for 5 minutes. Reaction was initiated by the addition of cofactor, and the mixture was incubated in a shaking water bath at 37° C. Aliquots (100 μL) were withdrawn at 0, 10, 20, 30, and 60 minutes. Test article samples were immediately combined with 300 μL of ice-cold acetonitrile containing 1% formic acid. Control samples were immediately combined with 400 μL of ice-cold 50/50 acetonitrile (ACN)/dH2O containing 0.1% formic acid and internal standard to terminate the reaction. Samples were then mixed and centrifuged to precipitate proteins. Calibration standards were prepared in matched matrix. Samples and standards were assayed by LC-MS/MS using electrospray ionization for both the dosed prodrug and the expected drug (PEA). Analytical conditions are outlined in Appendix 10-1. Test article concentration at each time point was compared to the test article concentration at time 0 to determine the percent remaining at each time point. Half-lives were calculated using GraphPad software, fitting to a single-phase exponential decay equation.
Reaction mixture, minus cofactors, was prepared as described below. Test article was added into the reaction mixture at a final concentration of 1 μM.

[1] = both, human, calculated value in parentheses
[2] = both, human, Half-life, calculated value in parentheses
[3] = male, Sprague-Dawley, rat, 0 min
[4] = male, Sprague-Dawley, rat, 10 min
[5] = male, Sprague-Dawley, rat, 20 min
[6] = male, Sprague-Dawley, rat, 30 min
[7] = male, Sprague-Dawley, rat, 60 min
[8] = male, Sprague-Dawley, rat, 0.5 h
[9] = male, Sprague-Dawley, rat, calculated value in parentheses
[10] = male, Sprague-Dawley, rat, Half-life
[11] = male, Sprague-Dawley, rat, Half-life, calculated value in parentheses

Measured concentration of PEA (analyte) (both, human, 0 min): 0.063 µM
Measured concentration of PEA (analyte) (both, human, 10 min): 0.34 µM
Measured concentration of PEA (analyte) (both, human, 20 min): 0.25 µM
Measured concentration of PEA (analyte) (both, human, 30 min): 0.21 µM
Measured concentration of PEA (analyte) (both, human, 60 min): 0.070 µM
% Remaining of Initial (both, human, 0 h): 100%
% Remaining of Initial (both, human, 10 min): 2.8%
% Remaining of Initial (both, human, 20 min): <1.0%
% Remaining of Initial (both, human, 0.5 h): <1.0%
% Remaining of Initial (both, human, 1 h): <1.0%
microsomal CLint at 1 μM (both, human): > 139 µL/min/mg
microsomal CLint at 1 μM [1]: 712 µL/min/mg
half-life at 1 μM (both, human, Half-life): < 10 min
half-life at 1 μM [2]: 2 min
Measured concentration of PEA (analyte) [3]: 0.033 µM
Measured concentration of PEA (analyte) [4]: 0.041 µM
Measured concentration of PEA (analyte) [5]: 0.019 µM
Measured concentration of PEA (analyte) [6]: 0 µM
Measured concentration of PEA (analyte) [7]: 0 µM
% Remaining of Initial (male, Sprague-Dawley, rat, 0 h): 100%
% Remaining of Initial [4]: 4.3%
% Remaining of Initial [5]: 1.2%
% Remaining of Initial [8]: <1.0%
% Remaining of Initial (male, Sprague-Dawley, rat, 1 h): <1.0%
microsomal CLint at 1 μM (male, Sprague-Dawley, rat): > 139 µL/min/mg
microsomal CLint at 1 μM [9]: 624 µL/min/mg
half-life at 1 μM [10]: < 10 min
half-life at 1 μM [11]: 2.2 min
SMILES: CCCCCCCCCCCCCCCC(=O)NCCOC(=O)CCC(=O)OC(CO)CO [Compound I-8]

Concentration of analyte I-9 (both, human, 0 min): 180 nM
Concentration of analyte PEA (both, human, 0 min): 830 nM
Measured concentration of analyte PEA, 0 min (both, human, 0 min): 0.47 µM
Concentration of analyte I-9 (both, human, 10 min): 2.1 nM
Concentration of analyte PEA (both, human, 10 min): 600 nM
Measured concentration of analyte PEA, 10 min (both, human, 10 min): 0.39 µM
Concentration of analyte I-9 (both, human, 20 min): 0 nM
Concentration of analyte PEA (both, human, 20 min): 510 nM
Measured concentration of analyte PEA, 20 min (both, human, 20 min): 0.22 µM
Concentration of analyte I-9 (both, human, 30 min): 0 nM
Concentration of analyte PEA (both, human, 30 min): 410 nM
Measured concentration of analyte PEA, 30 min (both, human, 30 min): 0.16 µM
Concentration of analyte I-9 (both, human, 60 min): 0 nM
Concentration of analyte PEA (both, human, 60 min): 200 nM
Measured concentration of analyte PEA, 60 min (both, human, 60 min): 0.058 µM
% Remaining of Initial (n = 1) (both, human, 0 h): 100%
% Remaining of Initial, 0 min (both, human, 0 h): 100%
% Remaining of Initial (n = 1) (both, human, 10 min): 1.2%
% Remaining of Initial, 10 min (both, human, 10 min): <1.0%
% Remaining of Initial (n = 1) (both, human, 20 min): <1.0%
% Remaining of Initial, 20 min (both, human, 20 min): <1.0%
% Remaining of Initial (n = 1) (both, human, 0.5 h): <1.0%
% Remaining of Initial, 30 min (both, human, 0.5 h): <1.0%
% Remaining of Initial (n = 1) (both, human, 1 h): <1.0%
% Remaining of Initial, 60 min (both, human, 1 h): <1.0%
microsomal CLint at 1 μM [1]: 888 µL/min/mg
half-life at 1 μM (both, human, Half-Life): < 10 min
half-life at 1 μM (both, human, Half-life): < 1 min
half-life at 1 μM [2]: 1.6 min
Concentration of analyte I-9 [3]: 210 nM
Concentration of analyte PEA [3]: 350 nM
Measured concentration of analyte PEA, 0 min [3]: 0.22 µM
Concentration of analyte I-9 [4]: 8.5 nM
Concentration of analyte PEA [4]: 160 nM
Measured concentration of analyte PEA, 10 min [4]: 0.066 µM
Concentration of analyte I-9 [5]: 0 nM
Concentration of analyte PEA [5]: 76 nM
Measured concentration of analyte PEA, 20 min [5]: 0.017 µM
Concentration of analyte I-9 [6]: 0 nM
Concentration of analyte PEA [6]: 27 nM
Measured concentration of analyte PEA, 30 min [6]: 0 µM
Concentration of analyte I-9 [7]: 0 nM
Concentration of analyte PEA [7]: 3 nM
Measured concentration of analyte PEA, 60 min [7]: 0 µM
% Remaining of Initial (n = 1) (male, Sprague-Dawley, rat, 0 h): 100%
% Remaining of Initial, 0 min (male, Sprague-Dawley, rat, 0 h): 100%
% Remaining of Initial (n = 1) [4]: 4.0%
% Remaining of Initial, 10 min [4]: 1.9%
% Remaining of Initial (n = 1) [5]: <1.0%
% Remaining of Initial, 20 min [5]: <1.0%
% Remaining of Initial (n = 1) [8]: <1.0%
% Remaining of Initial, 30 min [8]: <1.0%
% Remaining of Initial (n = 1) (male, Sprague-Dawley, rat, 1 h): <1.0%
% Remaining of Initial, 60 min (male, Sprague-Dawley, rat, 1 h): <1.0%
microsomal CLint at 1 μM [9]: 642 µL/min/mg
half-life at 1 μM (male, Sprague-Dawley, rat, Half-Life): < 10 min
half-life at 1 μM [10]: 1.8 min
half-life at 1 μM [11]: 2.2 min
SMILES: CCCCCCCCCCCCCCCC(=O)NCCOC(=O)CCC(=O)OCC(O)CO (centres unmarked) [Compound I-9]
